“And” between values parts separate entries of the source, which are not always exact repeats. Identical values can stand only once.
system: SARS-CoV-2 GFP/ΔN trVLP; type: cell-based

Row | Compound | IC50
1 | Cc1cccc(C)c1OCC(=O)N[C@@H](Cc1ccccc1)[C@@H](O)C[C@H](Cc1ccccc1)NC(=O)[C@H](C(C)C)N1CCCNC1=O [Lopinavir] | 8.7 µM and 8.75 µM
2 | CCC(CC)COC(=O)[C@H](C)N[P@](=O)(OC[C@H]1O[C@@](C#N)(c2ccc3c(N)ncnn23)[C@H](O)[C@@H]1O)Oc1ccccc1 [Remdesivir] | 0.0625 µM
3 | CC(C)c1nc(CN(C)C(=O)N[C@H](C(=O)N[C@@H](Cc2ccccc2)C[C@H](O)[C@H](Cc2ccccc2)NC(=O)OCc2cncs2)C(C)C)cs1 [Ritonavir] | 7.54 µM
4 | GC376 | 4.5 µM

Source: paper PMC7990224 (PLoS Pathogens, 2021)
